# Laboratory results taken from ChEMBL document CHEMBL4813985, “Lead optimization generates selenium-containing miconazole CYP51 inhibitors with improved pharmacological profile for the treatment of fungal infections” (Eur J Med Chem, 2021).
# The source made the active and inactive calls. The calls are words filed in the database; no cut-off is given here.
# Legend:
# [1] = tested on: Candida albicans; assay: Antifungal activity against Candida albicans ATCC SC5314 measured after 24 hrs by broth microdilution assay; type: functional
# [2] = tested on: [Candida] zeylanoides; assay: Antifungal activity against Candida zeylanoides CMGCC2.3739 measured after 24 hrs by broth microdilution assay; type: functional; details: Dujonia zeylanoides
# [3] = tested on: Candida albicans; assay: Antifungal activity against fluconazole-resistant Candida albicans CaR assessed as inhibition of microbial growth after 24 hrs by broth microdilution method; type: functional
# [4] = tested on: Candida albicans; assay: Antifungal activity against fluconazole-resistant Candida albicans 17# assessed as inhibition of microbial growth after 24 hrs by broth microdilution method; type: functional
# [5] = tested on: Candida albicans; assay: Antifungal activity against fluconazole-resistant Candida albicans 632 assessed as inhibition of microbial growth after 24 hrs by broth microdilution method; type: functional
# [6] = tested on: Candida albicans; assay: Antifungal activity against fluconazole-resistant Candida albicans 901 assessed as inhibition of microbial growth after 24 hrs by broth microdilution method; type: functional
# [7] = tested on: Candida albicans; assay: Antifungal activity against fluconazole-resistant Candida albicans 904 assessed as inhibition of microbial growth after 24 hrs by broth microdilution method; type: functional
# [8] = tested on: MCF-10A; assay: Cytotoxicity against human MCF-10A cells assessed as reduction in cell viability incubated for 96 hrs by MTT assay; type: cell-based; details: read-out: IC50
# [9] = target: T1, Lanosterol 14-alpha demethylase (Candida albicans (strain SC5314 / ATCC MYA-2876) (Yeast), UniProt P10613); assay: Inhibition of CYP51 in Candida albicans ATCC SC5314 assessed as ergosterol level at 0.03125 ug/ml after 16 hrs by GC-MS analysis (reference value: 98.3%); set-up: scale not given: the % may be the effect or the level left; details: candida albicans sc5314, 16 h, at 0.03125 µg/mL
# [10] = target: T1, Lanosterol 14-alpha demethylase; assay: Inhibition of CYP51 in Candida albicans ATCC SC5314 assessed as ergosterol level at 0.5 ug/ml after 16 hrs by GC-MS analysis (reference value: 98.3%); set-up: scale not given: the % may be the effect or the level left; details: candida albicans sc5314, 16 h, at 0.5 µg/mL
# [11] = target: T1, Lanosterol 14-alpha demethylase; assay: Inhibition of CYP51 in Candida albicans ATCC SC5314 assessed as Obtusifoliol level at 0.03125 ug/ml after 16 hrs by GC-MS analysis (reference value: 0%); set-up: scale not given: the % may be the effect or the level left; details: candida albicans sc5314, 16 h, at 0.03125 µg/mL
# [12] = target: T1, Lanosterol 14-alpha demethylase; assay: Inhibition of CYP51 in Candida albicans ATCC SC5314 assessed as Obtusifoliol level at 0.5 ug/ml after 16 hrs by GC-MS analysis (reference value: 0%); set-up: scale not given: the % may be the effect or the level left; details: candida albicans sc5314, 16 h, at 0.5 µg/mL
# [13] = tested on: Candida albicans; assay: Anti-biofilm activity in Candida albicans CPCC400616 assessed as inhibition of biofilm formation incubated for 24 hrs with 1.5 hrs precultured fungal suspension by XTT assay; type: functional
# [14] = tested on: Candida albicans; assay: Anti-biofilm activity in Candida albicans CPCC400616 assessed as inhibition of biofilm formation incubated for 24 hrs with 24 hrs precultured fungal suspension by XTT assay; type: functional
# [15] = tested on: Candida albicans; assay: Antifungal activity against Candida albicans ATCC SC5314 infected in mouse model of candidiasis assessed as reduction in kidney fungal burden at 0.6 mg/kg/day, ip dosed at 2 hrs post infection and dosed for 4 days; type: functional, organism-based; details: time 4.0 day
# [16] = tested on: Candida albicans; assay: Antifungal activity against Candida albicans ATCC SC5314 infected in mouse model of candidiasis assessed as reduction in kidney fungal burden at 0.4 mg/kg/day, ip dosed at 2 hrs post infection and dosed for 4 days; type: functional, organism-based; details: time 4.0 day
# [17] = AUC (0 to t) in Sprague-Dawley rat at 2 mg/kg, iv by LC-MS analysis; type: ADME, organism-based; set-up: dose 2 mg/kg; details: in vivo
# [18] = AUC (0 to t) in Sprague-Dawley rat at 5 mg/kg, po by LC-MS analysis; type: ADME, organism-based; set-up: dose 5 mg/kg; details: in vivo
# [19] = Half life in Sprague-Dawley rat at 2 mg/kg, iv by LC-MS analysis; type: ADME, organism-based; details: in vivo
# [20] = Half life in Sprague-Dawley rat at 5 mg/kg, po by LC-MS analysis; type: ADME, organism-based; details: in vivo
# [21] = Oral bioavailability in Sprague-Dawley rat at 5 mg/kg by LC-MS analysis; type: ADME, organism-based; details: in vivo
# [22] = Selectivity ratio of IC50 for human HL-60 cells to MIC for Candida albicans CPCC400616; type: toxicity
# [23] = Selectivity ratio of IC50 for human MDA-MB-231 cells to MIC for Candida albicans CPCC400616; type: toxicity
# [24] = Selectivity ratio of IC50 for human PC-3 cells to MIC for Candida albicans CPCC400616; type: toxicity
# [25] = Selectivity ratio of IC50 for human MCF-10A cells to MIC for Candida albicans CPCC400616; type: toxicity
# [26] = tested on: Candida albicans; assay: Potency index, ratio of fluconazole MIC to test compound MIC for Candida albicans CPCC400616 measured after 24 hrs by broth microdilution assay; type: functional
# [27] = tested on: Candida albicans; assay: Fungicidal activity against Candida albicans CPCC400616 at 2 ug/ml incubated within 8 hrs and measured after 24 hrs culturing on PDA plate by time-kill kinetics analysis (reference value: 5 log10CFU/ml); type: functional; details: dose 2 µg/ml; time 32 hrs
# [28] = tested on: Candida albicans; assay: Fungicidal activity against Candida albicans CPCC400616 incubated for 24 hrs and measured after 24 hrs culturing on PDA plate by time-kill kinetics analysis; type: functional, organism-based; details: dose 0.25-2 µg/ml, time 48.0 hrs
# [29] = tested on: Candida albicans; assay: Anti-biofilm activity in Candida albicans CPCC400616 assessed as inhibition of biofilm formation at 16 ug/ml incubated for 24 hrs with 3 hrs precultured fungal suspension by XTT assay relative to control; type: functional
# [30] = tested on: Erythrocyte; assay: Hemolytic activity in rabbit RBC measured after 3 hrs by microplate reader assay; type: ADME, cell-based, Oryctolagus cuniculus
# [31] = tested on: Candida albicans; assay: Ratio of MFC for Candida albicans CPCC400616 incubated for 48 hrs followed by culturing on PDA plate for 24 hrs to MIC for Candida albicans CPCC400616 measured after 24 hrs; type: functional
# [32] = tested on: Candida albicans; assay: Fungicidal activity against Candida albicans CPCC400616 at 2 ug/ml incubated for 24 hrs and measured after 24 hrs culturing on PDA plate by time-kill kinetics analysis; type: functional, organism-based; details: dose 2.0 µg/ml, time 48.0 hrs
# [33] = tested on: Candida albicans; assay: Anti-biofilm activity in Candida albicans CPCC400616 assessed as inhibition of biofilm formation at 32 ug/ml incubated for 24 hrs with 3 hrs precultured fungal suspension by XTT assay relative to control; type: functional
# T1 sequence (P10613 whole entry): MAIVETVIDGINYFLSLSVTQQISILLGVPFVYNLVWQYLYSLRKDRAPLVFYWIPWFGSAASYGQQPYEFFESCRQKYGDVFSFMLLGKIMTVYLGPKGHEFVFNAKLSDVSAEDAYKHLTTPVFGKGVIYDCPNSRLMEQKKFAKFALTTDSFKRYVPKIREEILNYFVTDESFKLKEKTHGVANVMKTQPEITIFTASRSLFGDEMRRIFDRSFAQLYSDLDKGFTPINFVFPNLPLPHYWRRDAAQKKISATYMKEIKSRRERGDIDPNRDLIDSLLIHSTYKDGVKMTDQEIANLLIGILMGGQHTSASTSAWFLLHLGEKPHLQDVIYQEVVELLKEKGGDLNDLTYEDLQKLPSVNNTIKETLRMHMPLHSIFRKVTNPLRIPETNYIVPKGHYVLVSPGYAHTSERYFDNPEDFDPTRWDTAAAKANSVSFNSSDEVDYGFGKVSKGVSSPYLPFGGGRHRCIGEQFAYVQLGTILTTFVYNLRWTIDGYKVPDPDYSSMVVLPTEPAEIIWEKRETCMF
smiles,measurement,setting,value
Fc1ccc([Se]C(Cn2ccnc2)c2ccc(F)cc2F)cc1 (stereo not given),MIC,[1],0.02 µg/mL
same,MIC,[2],0.25 µg/mL
same,MIC,[3],1 µg/mL
same,MIC,[4],0.06 µg/mL
same,MIC,[5],0.5 µg/mL
same,MIC,[6],0.5 µg/mL
same,MIC,[7],0.06 µg/mL
same,IC50,[8],59.4 µM
same,Activity,[9],8.7%
same,Activity,[10],4.9%
same,Activity,[11],17%
same,Activity,[12],9.9%
same,MIC50,[13],4 µg/mL
same,MIC80,[13],8 µg/mL
same,MIC50,[14],> 128 µg/mL
same,MIC80,[14],> 128 µg/mL
same,Activity,[15],Active
same,Activity,[16],Active
same,AUC(0-t),[17],2250 ng·h/mL
same,AUC(0-t),[18],1260 ng·h/mL
same,half-life,[19],1.89 h
same,half-life,[20],1.93 h
same,bioavailability,[21],22.3%
same,selectivity ratio,[22],38
same,selectivity ratio,[23],38
same,selectivity ratio,[24],38
same,selectivity ratio,[25],38
same,Ratio,[26],8
same,Activity,[27],2 log10CFU/ml
same,Activity,[28],Dose-Dependent Effect
same,inhibition at 16 µg/mL,[29],80%
Clc1ccc(COC(Cn2ccnc2)c2ccc(Cl)cc2Cl)c(Cl)c1 (stereo not given) [MICONAZOLE],MIC,[1],0.03 µg/mL
same,MIC,[2],1 µg/mL
same,Activity,[9],12.2%
same,Activity,[10],7.1%
same,Activity,[11],7.2%
same,Activity,[12],9%
same,MIC50,[13],16 µg/mL
same,MIC80,[13],128 µg/mL
same,MIC50,[14],> 128 µg/mL
same,MIC80,[14],> 128 µg/mL
same,MHC,[30],8 µg/mL
same,Ratio,[31],8
same,Activity,[32],Active
same,inhibition at 32 µg/mL,[33],50%
